Test results as given in patent publication US10760052B2, “Method of inhibiting tau phosphorylation” (priority 2012, dated 2020).
Where two headings read alike, the source gives them in different places.

Target: T1, mu opiate receptor (MOR) (Rattus norvegicus, UniProt P33535)
T1 construct: from tissue; host or cells: striatum (membrane preparation)
Assay type: biochemical
Details: for Concentration of FLNA-Binding Compound as Agonist 0.1 μM / Concentration of FLNA-Binding Compound as Agonist 1 μM / Concentration of FLNA-Binding Compound as Agonist 1 μM + BFNA: [35S]GTPγS binding to Gαo in striatal membranes; for Concentration of FLNA-Binding Compound as Agonist 0.1 μM: compound 0.1 μM; for Concentration of FLNA-Binding Compound as Agonist 1 μM: compound 1 μM; for Concentration of FLNA-Binding Compound as Agonist 1 μM + BFNA: compound 1 μM plus 1 μM β-funaltrexamine (MOR antagonist)

[1] = 0.1 μM compound, striatal membranes, Series C-2
[2] = 1 μM compound + 1 μM β-FNA (selective MOR antagonist), Series C-2
[3] = 1 μM compound, striatal membranes, Series C-2

T1 sequence (P33535 whole entry): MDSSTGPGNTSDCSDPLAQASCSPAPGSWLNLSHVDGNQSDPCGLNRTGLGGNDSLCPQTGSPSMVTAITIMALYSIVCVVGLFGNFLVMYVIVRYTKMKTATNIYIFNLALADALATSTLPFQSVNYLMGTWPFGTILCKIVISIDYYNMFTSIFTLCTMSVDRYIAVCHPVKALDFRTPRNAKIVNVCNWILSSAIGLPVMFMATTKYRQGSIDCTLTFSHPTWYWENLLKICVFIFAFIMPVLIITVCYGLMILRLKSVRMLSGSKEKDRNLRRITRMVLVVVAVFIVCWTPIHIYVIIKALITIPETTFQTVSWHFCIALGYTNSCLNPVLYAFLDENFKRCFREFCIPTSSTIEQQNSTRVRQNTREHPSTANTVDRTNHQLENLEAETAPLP

`CC1CN(CC(O)COc2ccccc2Br)CC(C)O1` (stereo not drawn) [Compound A0043] was tested, and the “% DAMGO (0.1 μM)” value was 93.4%, the “% DAMGO (1 μM)” value was 81.1% and the “% DAMGO + BFNA” value was 120.6%. The “Concentration of FLNA-Binding Compound as Agonist 0.1 μM” value (shortened to “Concentration … as Agonist 0.1 μM”) was 183.3%, the “Concentration of FLNA-Binding Compound as Agonist 1 μM” value was 223.8% and the “Concentration of FLNA-Binding Compound as Agonist 1 μM + BFNA” value (“Concentration … as Agonist 1 μM + BFNA” for short) was 89.1%.
`O=C1CN(Cc2ccccc2)C2(CCNCC2)N1` [Compound C0115M] was tested, and the “% DAMGO (0.1 μM)” value was 105.7%, the “% DAMGO (1 μM)” value was 102.0% and the “% DAMGO + BFNA” value was 249.3%. For the same compound, the “[35S]GTPγS binding, FLNA-Binding Compound as Agonist at 0.1 μM” value (“[35S]GTPγS binding … at 0.1 μM” for short) was 177.2%, the “[35S]GTPγS binding, FLNA-Binding Compound as Agonist at 1 μM” value was 226.8% and the “[35S]GTPγS binding, FLNA-Binding Compound as Agonist at 1 μM + BFNA” value (“[35S]GTPγS binding … at 1 μM + BFNA” below) was 118.4%.
`COc1ccc(OCC(O)CN2CCOc3ccccc32)cc1` (stereo not drawn) [Compound A0076] was tested, and the “% DAMGO (0.1 μM)” value was 46.4%, the “% DAMGO (1 μM)” value was 78.6% and the “% DAMGO + BFNA” value was 119.4%. For the same compound, the “Concentration … as Agonist 0.1 μM” value was 79.8%, the “Concentration of FLNA-Binding Compound as Agonist 1 μM” value was 172.6% and the “Concentration … as Agonist 1 μM + BFNA” value was 41.2%.
For `O=S(=O)(c1ccc(Br)cc1)N1CCC2(CC1)OCCN2S(=O)(=O)c1ccc(Br)cc1` [Compound C0025], the “% DAMGO (0.1 μM)” value was 122.6%, the “% DAMGO (1 μM)” value was 117.5% and the “% DAMGO + BFNA” value was 182.7%. For the same compound, the “Concentration … as Agonist 0.1 μM” value was 235.7%, the “Concentration of FLNA-Binding Compound as Agonist 1 μM” value was 320.7% and the “Concentration … as Agonist 1 μM + BFNA” value was 80.2%.
For `O=S(=O)(c1ccc(Oc2ccccc2)cc1)N1CCC2(CC1)OCCN2S(=O)(=O)c1ccc(Oc2ccccc2)cc1` [Compound C0149M], the “% DAMGO (0.1 μM)” value was 122.0%, the “% DAMGO (1 μM)” value was 124.8% and the “% DAMGO + BFNA” value was 102.3%. The “Concentration … as Agonist 0.1 μM” value was 209.8%, the “Concentration of FLNA-Binding Compound as Agonist 1 μM” value was 406.7% and the “Concentration … as Agonist 1 μM + BFNA” value was 93.4%.
In the case of `CC1CCC(C)C(OCC(O)CN2CC(C)OC(C)C2)C1` (stereo not drawn) [Compound A0022], the “% DAMGO (0.1 μM)” value is reported as 90.0%, the “% DAMGO (1 μM)” value is reported as 80.9% and the “% DAMGO + BFNA” value is reported as 53.7%. The “Concentration … as Agonist 0.1 μM” value was 154.1%, the “Concentration of FLNA-Binding Compound as Agonist 1 μM” value was 216.0% and the “Concentration … as Agonist 1 μM + BFNA” value was 28.0%.
`CC(=O)N1CCSC12CCN(S(=O)(=O)c1ccc([N+](=O)[O-])cc1)CC2` [Compound C0050] was tested, and the “% DAMGO (0.1 μM)” value was 76.1%, the “% DAMGO (1 μM)” value was 54.8% and the “% DAMGO + BFNA” value was 134.1%. For the same compound, the “[35S]GTPγS binding … at 0.1 μM” value [1] was 110.3%, the “[35S]GTPγS binding … at 1 μM + BFNA” value [2] was 59.0% and the “[35S]GTPγS binding, FLNA-Binding Compound as Agonist at 1 μM” value [3] was 127.6%.
`COc1ccc(S(=O)(=O)N2CCC3(CC2)NCCO3)cc1` [Compound C0026] was tested, and the “% DAMGO (0.1 μM)” value was 107.7%, the “% DAMGO (1 μM)” value was 105.6% and the “% DAMGO + BFNA” value was 48.3%. For the same compound, the “[35S]GTPγS binding … at 0.1 μM” value [1] was 207.2%, the “[35S]GTPγS binding … at 1 μM + BFNA” value [2] was 21.2% and the “[35S]GTPγS binding, FLNA-Binding Compound as Agonist at 1 μM” value [3] was 288.4%.
In the case of `O=C1CN(C2CCc3ccccc3C2)C2(CCN(S(=O)(=O)c3ccccc3)CC2)N1` (stereo not drawn) [C0136M(P5)], the “% DAMGO (0.1 μM)” value is reported as 93.4%, the “% DAMGO (1 μM)” value is reported as 95.6% and the “% DAMGO + BFNA” value is reported as 153.6%. For the same compound, the “[35S]GTPγS binding … at 0.1 μM” value [1] was 176.8%, the “[35S]GTPγS binding … at 1 μM + BFNA” value [2] was 74.5% and the “[35S]GTPγS binding, FLNA-Binding Compound as Agonist at 1 μM” value [3] was 237.3%.
For `COc1ccc(C(=O)CC2c3c(cc4c(c3OC)OCO4)CC[N+]2(C)C)cc1OC` (stereo not drawn) [Compound B0026], the “% DAMGO (0.1 μM)” value was 88.8%, the “% DAMGO (1 μM)” value was 87.4% and the “% DAMGO + BFNA” value was 55.3%. The “Concentration … as Agonist 0.1 μM” value was 152.0%, the “Concentration of FLNA-Binding Compound as Agonist 1 μM” value was 233.3% and the “Concentration … as Agonist 1 μM + BFNA” value was 28.8%.
For `CC(=O)c1ccc(S(=O)(=O)N2CCOC23CCN(CC(=O)O)CC3)cc1` [Compound C0100M], the “% DAMGO (0.1 μM)” value was 103.6%, the “% DAMGO (1 μM)” value was 110.6% and the “% DAMGO + BFNA” value was 411.8%. The “[35S]GTPγS binding … at 0.1 μM” value [1] was 173.6%, the “[35S]GTPγS binding … at 1 μM + BFNA” value [2] was 195.6% and the “[35S]GTPγS binding, FLNA-Binding Compound as Agonist at 1 μM” value [3] was 245.9%.
In the case of `O=S(=O)(c1ccc(C(F)(F)F)cc1)N1CCC2(CC1)OCCN2S(=O)(=O)c1ccc(C(F)(F)F)cc1` [Compound C0012], the “% DAMGO (0.1 μM)” value is reported as 54.8%, the “% DAMGO (1 μM)” value is reported as 86.7% and the “% DAMGO + BFNA” value is reported as 280.7%. The “Concentration … as Agonist 0.1 μM” value was 96.8%, the “Concentration of FLNA-Binding Compound as Agonist 1 μM” value was 224.8% and the “Concentration … as Agonist 1 μM + BFNA” value was 184.4%.
For `Cc1ccc(C(C)C)c(OCC(O)CN2CC(C)OC(C)C2)c1` (stereo not drawn) [Compound A0028], the “% DAMGO (0.1 μM)” value was 81.3%, the “% DAMGO (1 μM)” value was 73.8% and the “% DAMGO + BFNA” value was 443.7%. The “Concentration … as Agonist 0.1 μM” value was 143.6%, the “Concentration of FLNA-Binding Compound as Agonist 1 μM” value was 187.7% and the “Concentration … as Agonist 1 μM + BFNA” value was 116.7%.
With `COc1ccc(C(=O)CC2c3c(cc4c(c3OC)OCO4)CC[N+]2(C)C)cc1` (stereo not drawn) [Compound B0024] the “% DAMGO (0.1 μM)” value was 93.2%, the “% DAMGO (1 μM)” value was 116.7% and the “% DAMGO + BFNA” value was 58.2%. For the same compound, the “Concentration … as Agonist 0.1 μM” value was 155.8%, the “Concentration of FLNA-Binding Compound as Agonist 1 μM” value was 285.9% and the “Concentration … as Agonist 1 μM + BFNA” value was 20.2%.
`COc1ccc(S(=O)(=O)N2CCOC23CCN(C)CC3)cc1` [Compound C0088M] was tested, and the “% DAMGO (0.1 μM)” value was 160.5%, the “% DAMGO (1 μM)” value was 161.7% and the “% DAMGO + BFNA” value was 513.3%. The “[35S]GTPγS binding … at 0.1 μM” value [1] was 276.3%, the “[35S]GTPγS binding … at 1 μM + BFNA” value [2] was 177.1% and the “[35S]GTPγS binding, FLNA-Binding Compound as Agonist at 1 μM” value [3] was 355.3%.
For `CC(O)c1ccc(S(=O)(=O)N2CCC3(CC2)OCCN3S(=O)(=O)c2ccc(C(C)O)cc2)cc1` (stereo not drawn) [Compound C0051], the “% DAMGO (0.1 μM)” value was 65.1%, the “% DAMGO (1 μM)” value was 73.1% and the “% DAMGO + BFNA” value was 127.0%. The “Concentration … as Agonist 0.1 μM” value was 94.4%, the “Concentration of FLNA-Binding Compound as Agonist 1 μM” value was 170.4% and the “Concentration … as Agonist 1 μM + BFNA” value was 55.9%.
`COc1ccc(CCC(O)CC2c3c(cc4c(c3OC)OCO4)CCN2C)cc1` (stereo not drawn) [Compound B0048] was tested, and the “% DAMGO (0.1 μM)” value was 104.8%, the “% DAMGO (1 μM)” value was 87.8% and the “% DAMGO + BFNA” value was 298.5%. For the same compound, the “Concentration … as Agonist 0.1 μM” value was 185.1%, the “Concentration of FLNA-Binding Compound as Agonist 1 μM” value was 223.4% and the “Concentration … as Agonist 1 μM + BFNA” value was 78.5%.
